As a reminder, the pIC50 is the IC50 on a negative log10 scale, so that one unit is a factor of ten.

The text below walks through data of US7300944B2, “Pyrazolo[3,4-b]pyridin-6-ones as GSK-3 inhibitors” (Pfizer Inc., priority 2003, dated 2007).

In the experiment the target is GSK-3 (Homo sapiens, UniProt P49841). Nature of the experiment: GSK-3 inhibition, cell-free 33P-ATP peptide substrate SPA assay. It is filed as biochemical. As to conditions: read-out: inhibitory activity against GSK-3, expressed as IC50. As for the experimental part:
The specific activity of a compound, stereoisomer, or prodrug of formula (I) in inhibiting GSK-3 can be determined in both cell-free and cell-based assays, both of which have been previously described in the relevant art. See, for example, U.S. Pat. Nos. 6,417,185 and 6,489,344, the disclosures of which are incorporated herein by reference in their entirety.
A cell-free assay can be generally carried out by incubating GSK-3 with a peptide substrate, radiolabeled ATP (e.g., for example, γ^33P- or γ^32P-ATP, both of which are available from Amersham; Arlington Heights, Ill.), magnesium ions, and the compound to be assayed. […] The amount of γ^33P or […] remaining in each well after washing is then quantified to determine the amount of radiolabeled phosphate incorporated into the peptide substrate. […]
Another example of a GSK-3 assay, similar to the one described hereinabove, is as follows: enzyme activities are assayed as the incorporation of ^33P from gamma phosphate of ^33P-ATP (Amersham; Arlington Heights, Ill.; catalog #AH-9968) into biotinylated peptide substrate PKTP-KKAKKL. […] The final concentration of ATP is 0.5 μM (final specific radioactivity of […]), and the final concentration of substrate is 0.75 μM. […] Radioactivity associated with the beads is then quantified by scintillation counting. […]

pIC50: −log10 of the molar value.

Sequence of GSK-3 (P49841 whole entry): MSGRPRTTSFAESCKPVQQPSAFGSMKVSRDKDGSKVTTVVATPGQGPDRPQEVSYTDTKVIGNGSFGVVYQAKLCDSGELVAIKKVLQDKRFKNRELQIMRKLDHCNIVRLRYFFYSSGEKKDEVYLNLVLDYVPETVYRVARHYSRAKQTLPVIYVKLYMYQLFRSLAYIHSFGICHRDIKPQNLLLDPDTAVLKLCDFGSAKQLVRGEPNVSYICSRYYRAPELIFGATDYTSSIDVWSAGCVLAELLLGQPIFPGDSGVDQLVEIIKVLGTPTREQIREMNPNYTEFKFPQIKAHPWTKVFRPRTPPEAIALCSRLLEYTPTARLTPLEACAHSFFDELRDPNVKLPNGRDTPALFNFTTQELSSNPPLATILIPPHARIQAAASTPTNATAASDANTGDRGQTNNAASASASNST

For `COc1nccc(C2CC(=O)Nc3n[nH]c(C4CCC4)c32)n1` (stereo not shown) [Example 45, 3-Cyclobutyl-4-(2-methoxy-pyrimidin-4-yl)-2,4,5,7-tetrahydro-pyrazolo[3,4-b]pyridin-6-one], the pIC50 is 8.19.
